Laboratory results taken from patent US11000033B2, “Ketone or oxime compound, and herbicide” (NISSAN CHEMICAL CORPORATION, priority 2014, dated 2021).

What was measured:
Assay type in all cases: in vivo
wheat = test: Test Example 4: effect on crop by soil treatment (symbol e); settings: for Effect on crop grade, e: wheat: application herbicide amount 320 g/ha
Summary of the method: (§1)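 Crop seed is sown in spots together with several weed species in a box of sterilized diluvial soil. It is covered by about 1.5 cm of soil and kept in a greenhouse held between 25° C. and 30° C.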

beet [1] = test: Test Example 5: effect on crop by foliage application, plastic box (symbol f); settings: 3 weeks after application
Summary of the method: (§2)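 Seeds were sown in spots in sterilized diluvial soil held in a plastic box 21 cm × 13 cm × 7 cm deep, covered with about 1.5 cm of soil, and grown in a greenhouse at 25° C. to 30° C.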

Amaranthus retroflexus [2] = test: Test Example 4: herbicidal effect by soil treatment (symbol N); settings: for Herbicidal effect grade, N: Amaranthus retroflexus: application herbicide amount 320 g/ha
Summary of the method: (§3)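 Seeds were sown in sterilized diluvial soil, covered with about 1.5 cm of soil, and the soil surface was sprayed with a water-diluted emulsion of the compound at a predetermined rate. Plants grew in a greenhouse at 25° C. to 30° C.; effects were scored visually 3 weeks after application.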

Veronica persica = test: Test Example 5: herbicidal effect by foliage application, plastic box (symbol R); settings: 3 weeks after application
Summary of the method: (§4)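 Emulsion formulation, diluted with water to the intended rate, was applied uniformly to leaves by small sprayer. Recipients were 14-day greenhouse-grown seedlings (25° C. to 30° C.). Assessment followed at 3 weeks.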

Alopecurus myosuroides = test: Test Example 4: herbicidal effect by soil treatment (symbol J); settings: for Herbicidal effect grade, J: Alopecurus myosuroides: application herbicide amount 320 g/ha
Summary of the method: as §3

rice plant = test: Test Example 5: effect on crop by foliage application, plastic box (symbol b); settings: 3 weeks after application
Summary of the method: as §2

beet [3] = test: Test Example 4: effect on crop by soil treatment (symbol f); settings: for Effect on crop grade, f: beet: application herbicide amount 320 g/ha
Summary of the method: as §1

Stellaria media = test: Test Example 5: herbicidal effect by foliage application, plastic box (symbol P); settings: 3 weeks after application
Summary of the method: as §4

Setaria viridis = test: Test Example 5: herbicidal effect by foliage application, plastic box (symbol G); settings: 3 weeks after application
Summary of the method: as §4

Cyperus difformis = test: Test Example 3: herbicidal effect by foliage application, Wagner pot (symbol E); settings: for E herbicidal effect grade: application herbicide amount 320 g/ha, Table 24
Summary of the method: (§5)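 Weeds and rice were sown in alluvial soil under 0.1–0.5 cm of standing water and grown for 14 days in a 25–30 °C greenhouse. An emulsion of the compound, diluted in water to a set dose, was sprayed evenly onto the foliage. Effect was scored against fixed criteria 3 weeks after treatment.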

Amaranthus retroflexus [4] = test: Test Example 5: herbicidal effect by foliage application, plastic box (symbol N); settings: 3 weeks after application
Summary of the method: as §4

[5] = tested on: Echinochloa crus-galli var. crus-galli; test: Test Example 4: herbicidal effect by soil treatment (symbol H); settings: for Herbicidal effect grade, H: Echinochloa crus-galli var. crus-galli: application herbicide amount 320 g/ha
Summary of the method: as §3

soybean = test: Test Example 4: effect on crop by soil treatment (symbol d); settings: for Effect on crop grade, d: soybean: application herbicide amount 320 g/ha
Summary of the method: as §1

Lolium multiflorum Lam. = test: Test Example 4: herbicidal effect by soil treatment (symbol K); settings: for Herbicidal effect grade, K: Lolium multiflorum Lam.: application herbicide amount 320 g/ha
Summary of the method: as §3

Chenopodium album = test: Test Example 5: herbicidal effect by foliage application, plastic box (symbol O); settings: 3 weeks after application
Summary of the method: as §4

[6] = tested on: Echinochloa oryzacola Vasing.; test: Test Example 2: herbicidal activity, application during weed generation in submerged conditions (symbol A); settings: Table 23, grade 0-5 by criteria of Test Example 1
Summary of the method: (§6)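 Alluvial soil in pots was flooded to a 4 cm water depth and sown with a mix of the three weed species, then grown in a greenhouse at 25° C. to 30° C. At the one- to two-leaf stage, an emulsifiable formulation diluted in water to a set dose was applied to the water surface. Effects were scored visually 3 weeks later.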

Abutilon theophrasti = test: Test Example 5: herbicidal effect by foliage application, plastic box (symbol M); settings: 3 weeks after application
Summary of the method: as §4

[7] = tested on: Echinochloa crus-galli var. crus-galli; test: Test Example 3: herbicidal effect by foliage application, Wagner pot (symbol H); settings: for H (Echinochloa crus-galli var. crus-galli) herbicidal effect grade: application herbicide amount 320 g/ha, Table 24
Summary of the method: as §5

Scirpus juncoides = test: Test Example 2: herbicidal activity, application during weed generation in submerged conditions (symbol B); settings: Table 23, grade 0-5 by criteria of Test Example 1
Summary of the method: as §6

[8] = application herbicide amount 269 g/ha
[9] = application herbicide amount 320 g/ha

Compound	Effect on crop grade, e: wheat (wheat)	f: beet, effect on crop grade (beet [1]; 320 g/ha)	Herbicidal effect grade, N: Amaranthus retroflexus (Amaranthus retroflexus [2])	R: Veronica persica, herbicidal effect grade (Veronica persica; 320 g/ha)	Herbicidal effect grade, J: Alopecurus myosuroides (Alopecurus myosuroides)	b: directly sowed rice plant, effect on crop grade (rice plant; 320 g/ha)	Effect on crop grade, f: beet (beet [3])	P: Stellaria media, herbicidal effect grade (Stellaria media; 320 g/ha)	G: Setaria viridis, herbicidal effect grade (Setaria viridis; 320 g/ha)	E herbicidal effect grade (Cyperus difformis)	N: Amaranthus retroflexus, herbicidal effect grade (Amaranthus retroflexus [4]; 320 g/ha)	Herbicidal effect grade, H: Echinochloa crus-galli var. crus-galli [5]	Effect on crop grade, d: soybean (soybean)	Herbicidal effect grade, K: Lolium multiflorum Lam. (Lolium multiflorum Lam.)	O: Chenopodium album, herbicidal effect grade (Chenopodium album; 320 g/ha)	Herbicidal effect grade, A: Echinochloa oryzacola Vasing. [6, 9]	M: Abutilon theophrasti, herbicidal effect grade (Abutilon theophrasti; 320 g/ha)	H (Echinochloa crus-galli var. crus-galli) herbicidal effect grade [7]	Herbicidal effect grade, B: Scirpus juncoides (Scirpus juncoides; [9])	also measured
CC(=O)C(C)C1CC(O)=C(c2c(C)cc(C)cc2C)C1=O (stereo not shown) [2-005]																				e: wheat, effect on crop grade (wheat; [8]): 0 (Herbicidal ratio of 5% or lower (almost no effect)); f: beet, effect on crop grade (beet [1]; 269 g/ha): 2 (Herbicidal ratio of 20% or higher and lower than 40%); N: Amaranthus retroflexus, herbicidal effect grade (Amaranthus retroflexus [2]; [8]): 0 (Herbicidal ratio of 5% or lower (almost no effect)); R: Veronica persica, herbicidal effect grade (Veronica persica; 269 g/ha): 0 (Herbicidal ratio of 5% or lower (almost no effect)); J: Alopecurus myosuroides, herbicidal effect grade (Alopecurus myosuroides; [8]): 4 (Herbicidal ratio of 70% or higher and lower than 90%); b: directly sowed rice plant, effect on crop grade (rice plant; 269 g/ha): 5 (Herbicidal ratio of 90% or more (almost completely withered)); f: beet, effect on crop grade (beet [3]; [8]): 0 (Herbicidal ratio of 5% or lower (almost no effect)); P: Stellaria media, herbicidal effect grade (Stellaria media; 269 g/ha): 0 (Herbicidal ratio of 5% or lower (almost no effect)); G: Setaria viridis, herbicidal effect grade (Setaria viridis; 269 g/ha): 4 (Herbicidal ratio of 70% or higher and lower than 90%); herbicidal effect on E, grade 0-5 (Cyperus difformis; [8]): 4 (Herbicidal ratio of 70% or higher and lower than 90%); N: Amaranthus retroflexus, herbicidal effect grade (Amaranthus retroflexus [4]; 269 g/ha): 0 (Herbicidal ratio of 5% or lower (almost no effect)); H: Echinochloa crus-galli var. crus-galli, herbicidal effect grade [5, 8]: 5 (Herbicidal ratio of 90% or more (almost completely withered)); d: soybean, effect on crop grade (soybean; [8]): 0 (Herbicidal ratio of 5% or lower (almost no effect)); K: Lolium multiflorum Lam., herbicidal effect grade (Lolium multiflorum Lam.; [8]): 5 (Herbicidal ratio of 90% or more (almost completely withered)); O: Chenopodium album, herbicidal effect grade (Chenopodium album; 269 g/ha): 0 (Herbicidal ratio of 5% or lower (almost no effect)); Herbicidal effect grade, A: Echinochloa oryzacola Vasing. [6, 8]: 3 (Herbicidal ratio of 40% or higher and lower than 70%); M: Abutilon theophrasti, herbicidal effect grade (Abutilon theophrasti; 269 g/ha): 0 (Herbicidal ratio of 5% or lower (almost no effect)); herbicidal effect on H (Echinochloa crus-galli var. crus-galli), grade 0-5 [7, 8]: 5 (Herbicidal ratio of 90% or more (almost completely withered)); Herbicidal effect grade, B: Scirpus juncoides (Scirpus juncoides; [8]): 0 (Herbicidal ratio of 5% or lower (almost no effect))
CC#Cc1cc(C)c(C2=C(OC(=O)COc3ccccc3)CC(CC(C)=NOCC(F)(F)F)C2=O)c(C)c1 (stereo not shown) [9-013]	4 (Herbicidal ratio of 70% or higher and lower than 90%)	4 (Herbicidal ratio of 70% or higher and lower than 90%)	1 (Herbicidal ratio of 5% or higher and lower than 20%)	4 (Herbicidal ratio of 70% or higher and lower than 90%)	5 (Herbicidal ratio of 90% or more (almost completely withered))	5 (Herbicidal ratio of 90% or more (almost completely withered))	5 (Herbicidal ratio of 90% or more (almost completely withered))	2 (Herbicidal ratio of 20% or higher and lower than 40%)	5 (Herbicidal ratio of 90% or more (almost completely withered))	5 (Herbicidal ratio of 90% or more (almost completely withered))	0 (Herbicidal ratio of 5% or lower (almost no effect))	5 (Herbicidal ratio of 90% or more (almost completely withered))	0 (Herbicidal ratio of 5% or lower (almost no effect))	5 (Herbicidal ratio of 90% or more (almost completely withered))	3 (Herbicidal ratio of 40% or higher and lower than 70%)	5 (Herbicidal ratio of 90% or more (almost completely withered))	4 (Herbicidal ratio of 70% or higher and lower than 90%)	5 (Herbicidal ratio of 90% or more (almost completely withered))	5 (Herbicidal ratio of 90% or more (almost completely withered))	
COCCON=C(C)CC1CC(O)=C(c2c(C)cc(-n3cc(Cl)cn3)cc2C)C1=O (stereo not shown) [9-016]	0 (Herbicidal ratio of 5% or lower (almost no effect))	0 (Herbicidal ratio of 5% or lower (almost no effect))	0 (Herbicidal ratio of 5% or lower (almost no effect))	1 (Herbicidal ratio of 5% or higher and lower than 20%)	5 (Herbicidal ratio of 90% or more (almost completely withered))	5 (Herbicidal ratio of 90% or more (almost completely withered))	0 (Herbicidal ratio of 5% or lower (almost no effect))	3 (Herbicidal ratio of 40% or higher and lower than 70%)	5 (Herbicidal ratio of 90% or more (almost completely withered))	5 (Herbicidal ratio of 90% or more (almost completely withered))	0 (Herbicidal ratio of 5% or lower (almost no effect))	5 (Herbicidal ratio of 90% or more (almost completely withered))	0 (Herbicidal ratio of 5% or lower (almost no effect))	5 (Herbicidal ratio of 90% or more (almost completely withered))	2 (Herbicidal ratio of 20% or higher and lower than 40%)	5 (Herbicidal ratio of 90% or more (almost completely withered))	0 (Herbicidal ratio of 5% or lower (almost no effect))	5 (Herbicidal ratio of 90% or more (almost completely withered))	4 (Herbicidal ratio of 70% or higher and lower than 90%)	
COCCON=C(C)CC1CC(O)=C(c2c(C)cc(Br)cc2C)C1=O (stereo not shown) [9-017]	0 (Herbicidal ratio of 5% or lower (almost no effect))	0 (Herbicidal ratio of 5% or lower (almost no effect))	0 (Herbicidal ratio of 5% or lower (almost no effect))	0 (Herbicidal ratio of 5% or lower (almost no effect))	0 (Herbicidal ratio of 5% or lower (almost no effect))	5 (Herbicidal ratio of 90% or more (almost completely withered))	0 (Herbicidal ratio of 5% or lower (almost no effect))	0 (Herbicidal ratio of 5% or lower (almost no effect))	5 (Herbicidal ratio of 90% or more (almost completely withered))	3 (Herbicidal ratio of 40% or higher and lower than 70%)	0 (Herbicidal ratio of 5% or lower (almost no effect))	0 (Herbicidal ratio of 5% or lower (almost no effect))	0 (Herbicidal ratio of 5% or lower (almost no effect))	0 (Herbicidal ratio of 5% or lower (almost no effect))	0 (Herbicidal ratio of 5% or lower (almost no effect))	1 (Herbicidal ratio of 5% or higher and lower than 20%)	0 (Herbicidal ratio of 5% or lower (almost no effect))	5 (Herbicidal ratio of 90% or more (almost completely withered))	0 (Herbicidal ratio of 5% or lower (almost no effect))	
